Measurements from patent publication US8541588B2, “Sulfonamide derivatives” (Pfizer Limited, priority 2009, dated 2013).
pIC50: −log10 of the molar value.

target: T1, Nav1.7 (or SCN9A) channel; HEK cells stably transfected with hSCN9A (Homo sapiens, UniProt Q15858); test: Nav1.7 block, PatchXpress 7000 automated whole-cell voltage clamp, estimated IC50 (EIC50); format: cell-based; details: not given
T1 construct: expressed in transfected cells
T1 sequence (Q15858 whole entry): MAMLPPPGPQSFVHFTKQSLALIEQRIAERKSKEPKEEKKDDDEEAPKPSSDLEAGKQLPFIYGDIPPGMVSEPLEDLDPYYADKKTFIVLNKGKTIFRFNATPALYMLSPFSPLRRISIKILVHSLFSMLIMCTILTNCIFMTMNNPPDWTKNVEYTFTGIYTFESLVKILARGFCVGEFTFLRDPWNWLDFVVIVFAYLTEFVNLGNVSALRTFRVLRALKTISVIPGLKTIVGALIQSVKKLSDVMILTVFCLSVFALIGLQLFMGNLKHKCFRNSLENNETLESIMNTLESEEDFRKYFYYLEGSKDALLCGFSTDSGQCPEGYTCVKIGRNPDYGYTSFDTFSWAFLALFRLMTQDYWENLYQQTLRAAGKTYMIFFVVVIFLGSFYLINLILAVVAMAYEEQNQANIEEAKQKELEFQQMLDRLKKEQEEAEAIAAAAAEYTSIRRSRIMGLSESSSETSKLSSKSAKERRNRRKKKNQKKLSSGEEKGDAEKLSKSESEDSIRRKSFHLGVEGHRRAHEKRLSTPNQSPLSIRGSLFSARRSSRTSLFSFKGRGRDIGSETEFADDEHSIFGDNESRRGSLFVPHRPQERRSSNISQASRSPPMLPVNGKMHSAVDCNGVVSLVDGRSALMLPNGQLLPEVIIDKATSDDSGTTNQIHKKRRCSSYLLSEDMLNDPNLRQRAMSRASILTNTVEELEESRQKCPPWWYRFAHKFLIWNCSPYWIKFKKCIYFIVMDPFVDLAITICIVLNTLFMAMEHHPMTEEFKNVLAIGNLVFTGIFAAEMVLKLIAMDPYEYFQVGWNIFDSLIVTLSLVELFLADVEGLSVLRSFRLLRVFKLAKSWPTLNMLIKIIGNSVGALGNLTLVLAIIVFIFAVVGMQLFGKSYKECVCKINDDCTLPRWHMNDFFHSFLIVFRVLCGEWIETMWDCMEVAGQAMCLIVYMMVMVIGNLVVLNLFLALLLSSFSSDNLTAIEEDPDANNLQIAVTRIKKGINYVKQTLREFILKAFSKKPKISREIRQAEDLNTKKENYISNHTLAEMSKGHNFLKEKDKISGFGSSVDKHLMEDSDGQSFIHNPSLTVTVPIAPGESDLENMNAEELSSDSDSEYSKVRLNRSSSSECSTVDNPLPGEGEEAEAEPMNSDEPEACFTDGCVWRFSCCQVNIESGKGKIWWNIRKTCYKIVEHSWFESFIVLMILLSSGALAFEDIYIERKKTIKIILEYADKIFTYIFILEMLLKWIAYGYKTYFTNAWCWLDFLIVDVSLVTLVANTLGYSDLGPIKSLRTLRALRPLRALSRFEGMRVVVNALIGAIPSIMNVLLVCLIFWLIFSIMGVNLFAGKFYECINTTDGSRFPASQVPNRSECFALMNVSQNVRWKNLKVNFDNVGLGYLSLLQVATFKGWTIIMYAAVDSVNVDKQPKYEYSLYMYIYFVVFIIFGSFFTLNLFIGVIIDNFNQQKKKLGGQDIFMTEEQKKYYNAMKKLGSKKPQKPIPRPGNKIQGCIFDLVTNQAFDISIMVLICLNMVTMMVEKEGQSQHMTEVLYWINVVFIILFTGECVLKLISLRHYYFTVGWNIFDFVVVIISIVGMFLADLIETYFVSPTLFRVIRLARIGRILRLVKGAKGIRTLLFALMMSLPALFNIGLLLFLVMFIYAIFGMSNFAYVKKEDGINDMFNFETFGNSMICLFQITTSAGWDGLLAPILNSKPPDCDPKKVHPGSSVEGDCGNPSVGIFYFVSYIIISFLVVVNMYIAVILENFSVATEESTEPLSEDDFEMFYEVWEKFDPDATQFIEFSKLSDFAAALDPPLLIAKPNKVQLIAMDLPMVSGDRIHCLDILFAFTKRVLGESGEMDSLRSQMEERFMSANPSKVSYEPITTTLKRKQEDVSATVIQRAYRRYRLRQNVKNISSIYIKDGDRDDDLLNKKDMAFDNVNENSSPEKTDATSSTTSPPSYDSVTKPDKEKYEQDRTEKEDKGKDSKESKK

Molecule	pIC50
O=S(=O)(Nc1ncns1)c1cc(F)c(Oc2ccc(C(F)(F)F)cc2C2=CCNCC2)cc1F [Example 733, 2,5-difluoro-4-[2-(1,2,3,6-tetrahydropyridin-4-yl)-4-(trifluoromethyl)phenoxy]-N-1,2,4-thiadiazol-5-ylbenzenesulfonamide]	8.00

same assay, conditions: PatchXpress platform; hSCN9A HEK cells held at V1/2 of inactivation; estimated IC50

IC50 [nM]	pIC50	Molecule
>10000	–	CC(C)(C)n1ccc(-c2c(F)cccc2Oc2ccc(S(=O)(=O)Nc3ncns3)cc2C#N)n1 [Example 84, 4-[2-(1-tert-Butyl-1H-pyrazol-3-yl)-3-fluoro-phenoxy]-3-cyano-N-[1,2,4]thiadiazol-5-yl-benzene-sulfonamide]
–	5.51	N#Cc1cc(Oc2ccccc2-c2ccccc2)ccc1S(=O)(=O)Nc1ncns1 [Example 268, 4-(biphenyl-2-yloxy)-2-cyano-N-1,2,4-thiadiazol-5-ylbenzenesulfonamide]
–	6.96	O=S(=O)(Nc1nccs1)c1ccc(Oc2ccc(Cl)cc2-c2ccnn2-c2ccccc2)cc1F [Example 211, 4-(4-chloro-2-(1-phenyl-1H-pyrazol-5-yl)phenoxy)-2-fluoro-N-(thiazol-2-yl)benzenesulfonamide]
>10000	–	N#Cc1cc(S(=O)(=O)Nc2cnoc2)ccc1Oc1ccccc1-c1ccccc1 [Example 108, 4-(biphenyl-2-yloxy)-3-cyano-N-isoxazol-4-ylbenzenesulfonamide]
–	7.10	N#Cc1cc(S(=O)(=O)Nc2nccs2)ccc1Oc1ccc(F)cc1-c1ccc(F)cc1 [Example 152, 3-cyano-4-[(4′,5-difluorobiphenyl-2-yl)oxy]-N-1,3-thiazol-2-ylbenzenesulfonamide]
>10000	–	N#Cc1cc(S(=O)(=O)Nc2ncns2)ccc1Oc1ccccc1Oc1ccccc1C(N)=O [Example 76, 2-(2-{2-cyano-4-[(1,2,4-thiadiazol-5-yl-amino)sulfonyl]phenoxy}phenoxy)benzamide]
–	5.98	CC(C)(C)n1nc(C(F)(F)F)cc1-c1ccc(Oc2ccc(S(=O)(=O)Nc3nccs3)cc2F)cc1 [Example 245, 4-[4-(2-tert-butyl-5-trifluoromethyl-2H-pyrazol-3-yl)-phenoxy]-3-fluoro-N-thiazol-2-yl-benzenesulfonamide]

same assay, conditions: estimated IC50; hSCN9A HEK cells, PatchXpress platform; Examples 283-814

Molecule	pIC50	IC50 [nM]
tert-Butyl [(5-chloro-2,4-difluorophenyl)sulfonyl](5-cyano-1,3-thiazol-4-yl)carbamate [Example 516]	5.00	–
N#Cc1cc(S(=O)(=O)Nc2nccs2)ccc1Oc1ccc(-c2cn(CC(F)(F)F)nc2N)cc1 [Example 482, 4-{4-[3-amino-1-(2,2,2-trifluoroethyl)-1H-pyrazol-4-yl]phenoxy}-3-cyano-N-1,3-thiazol-2-ylbenzenesulfonamide]	–	>1000
Cc1cncnc1NS(=O)(=O)c1ccc(Oc2ccccc2-c2ccccc2)c(C#N)c1 [Example 428, 4-(biphenyl-2-yloxy)-3-cyano-N-(5-methylpyrimidin-4-yl)benzenesulfonamide]	–	>10000
Cc1cccnc1-c1ccc(Oc2ccc(S(=O)(=O)Nc3nccs3)cc2C#N)cc1 [Example 455, 3-cyano-4-[4-(3-methylpyridin-2-yl)phenoxy]-N-1,3-thiazol-2-ylbenzenesulfonamide]	5.64	–
N#Cc1cc(S(=O)(=O)Nc2nccs2)ccc1Oc1cccc(-c2cc(C(F)(F)F)nn2CCO)c1 [Example 549, 3-cyano-4-{3-[1-(2-hydroxyethyl)-3-(trifluoromethyl)-1H-pyrazol-5-yl]phenoxy}-N-1,3-thiazol-2-ylbenzenesulfonamide]	6.80	–
Cc1cn(C(F)F)nc1-c1ccc(Oc2ccc(S(=O)(=O)Nc3nccs3)cc2C#N)cc1 [Example 471, 3-cyano-4-{4-[1-(difluoromethyl)-4-methyl-1H-pyrazol-3-yl]phenoxy}-N-1,3-thiazol-2-ylbenzenesulfonamide]	5.57	–
N#Cc1cc(S(=O)(=O)Nc2nccs2)ccc1Oc1ccc(-c2cc(C3CC3)n[nH]2)c(Cl)c1 [Example 373, 4-[3-chloro-4-(3-cyclopropyl-1H-pyrazol-5-yl)phenoxy]-3-cyano-N-1,3-thiazol-2-ylbenzenesulfonamide]	–	>1000
N#Cc1cc(S(=O)(=O)Nc2nccs2)ccc1Oc1ccc(-n2cc(C(N)=O)cn2)cc1 [Example 379, 1-(4-{2-cyano-4-[(1,3-thiazol-2-ylamino)sulfonyl]phenoxy}phenyl)-1H-pyrazole-4-carboxamide]	–	>1000
CC(=O)c1cccc(-c2cc(Cl)ccc2Oc2ccc(S(=O)(=O)Nc3ncns3)cc2C#N)c1 [Example 504, 4-[(3′-acetyl-5-chlorobiphenyl-2-yl)oxy]-3-cyano-N-1,2,4-thiadiazol-5-ylbenzenesulfonamide]	8.31	–

The next lines start with the values.

pIC50	IC50 [nM]	Molecule
7.35	–	Cc1n[nH]cc1-c1cc(Cl)ccc1Oc1ccc(S(=O)(=O)Nc2nccs2)cc1F [Example 749, 4-[4-chloro-2-(3-methyl-1H-pyrazol-4-yl)phenoxy]-3-fluoro-N-1,3-thiazol-2-ylbenzenesulfonamide]
7.51	–	O=S(=O)(Nc1nccs1)c1cc(F)c(Oc2ccc(Cl)cc2-c2cn[nH]c2)cc1F [Example 679, 4-[4-chloro-2-(1H-pyrazol-4-yl)phenoxy]-2,5-difluoro-N-1,3-thiazol-2-ylbenzenesulfonamide]
7.92	–	O=S(=O)(Nc1nccs1)c1cc(F)c(Oc2ccc(OC(F)(F)F)cc2-c2cn[nH]c2)cc1F [Example 677, 2,5-difluoro-4-[2-(1H-pyrazol-4-yl)-4-(trifluoromethoxy)phenoxy]-N-1,3-thiazol-2-ylbenzenesulfonamide]
–	>1000	Cc1scnc1NS(=O)(=O)c1cc(Cl)c(Oc2ccc(F)cc2-c2ccnn2C)cc1F [Example 630, 5-chloro-2-fluoro-4-(4-fluoro-2-(1-methyl-1H-pyrazol-5-yl)phenoxy)-N-(5-methylthiazol-4-yl)benzenesulfonamide]
7.57	–	O=S(=O)(Nc1ncns1)c1cc(F)c(Oc2ccc(C(F)(F)F)cc2C2CCOCC2)cc1F [Example 633, 2,5-difluoro-4-[2-(tetrahydro-2H-pyran-4-yl)-4-(trifluoromethyl)phenoxy]-N-1,2,4-thiadiazol-5-ylbenzenesulfonamide]
8.00	–	CN1CC(n2nccc2-c2cc(Cl)ccc2Oc2cc(F)c(S(=O)(=O)Nc3cscn3)cc2Cl)C1 [Example 730, 5-chloro-4-{4-chloro-2-[1-(1-methylazetidin-3-yl)-1H-pyrazol-5-yl]phenoxy}-2-fluoro-N-1,3-thiazol-4-ylbenzenesulfonamide]
7.14	–	N#Cc1cc(S(=O)(=O)Nc2ncc(Cl)s2)ccc1Oc1ccc(OC(F)(F)F)cc1-c1cn[nH]c1 [Example 591, N-(5-Chloro-1,3-thiazol-2-yl)-3-cyano-4-[2-(1H-pyrazol-4-yl)-4-(trifluoromethoxy)phenoxy]benzenesulfonamide]
6.70	–	N#Cc1cc(S(=O)(=O)Nc2ncc(Cl)s2)ccc1Oc1ccc(F)cc1-c1ccc(N)nc1 [Example 587, 4-[2-(6-Aminopyridin-3-yl)-4-fluorophenoxy]-N-(5-chloro-1,3-thiazol-2-yl)-3-cyanobenzenesulfonamide]
5.89	–	N#Cc1cc(S(=O)(=O)Nc2nccs2)ccc1Oc1ccc(F)cc1-c1cnn(CC(F)(F)F)c1 [Example 641, 3-cyano-4-{4-fluoro-2-[1-(2,2,2-trifluoroethyl)-1H-pyrazol-4-yl]phenoxy}-N-1,3-thiazol-2-ylbenzenesulfonamide]
7.40	–	N#Cc1cc(S(=O)(=O)Nc2ncc(Cl)s2)ccc1Oc1ccc(F)cc1-c1cn[nH]c1 [Example 785, N-(5-Chloro-1,3-thiazol-2-yl)-3-cyano-4-[4-fluoro-2-(1H-pyrazol-4-yl)phenoxy]benzenesulfonamide]
7.70	–	Cn1nccc1-c1cc(Cl)ccc1Oc1ccc(S(=O)(=O)Nc2ncc(Cl)s2)cc1C#N [Example 597, 4-[4-Chloro-2-(1-methyl-1H-pyrazol-5-yl)phenoxy]-N-(5-chloro-1,3-thiazol-2-yl)-3-cyanobenzenesulfonamide]
8.85	–	O=S(=O)(Nc1ncns1)c1cc(F)c(Oc2ccc(Cl)cc2-c2cn[nH]c2)cc1F [Example 738, 4-[4-chloro-2-(1H-pyrazol-4-yl)phenoxy]-2,5-difluoro-N-1,2,4-thiadiazol-5-ylbenzenesulfonamide]
6.52	–	N#Cc1cc(S(=O)(=O)Nc2nccs2)ccc1Oc1ccc(Cl)cc1-c1cncnc1 [Example 701, 4-(4-chloro-2-pyrimidin-5-ylphenoxy)-3-cyano-N-1,3-thiazol-2-ylbenzenesulfonamide]

same assay, conditions: estimated IC50; hSCN9A HEK cells, PatchXpress platform; Examples 815-1040

IC50 [nM]	pIC50	Molecule
310	–	Cn1nccc1-c1cc(Cl)ccc1Oc1ccc(S(=O)(=O)/N=c2\sccn2COP(=O)(O)O)cc1C#N [Example 1039, [(2Z)-2-[({4-[4-Chloro-2-(1-methyl-1H-pyrazol-5-yl)phenoxy]-3-cyanophenyl}sulfonyl)imino]-1,3-thiazol-3(2H)-yl]methyl dihydrogen phosphate]
–	7.96	O=S(=O)(Nc1nncs1)c1cc(Cl)c(Oc2cc(F)c(C(F)(F)F)cc2-c2ccnnc2)cc1F [Example 1034, 5-Chloro-2-fluoro-4-[5-fluoro-2-pyridazin-4-yl-4-(trifluoromethyl)phenoxy]-N-1,3,4-thiadiazol-2-ylbenzenesulfonamide]
–	7.60	Cc1nsc(NS(=O)(=O)c2cc(Cl)c(Oc3ccc(C(F)(F)F)cc3-c3ccnnc3)cc2F)n1 [Example 871, 5-chloro-2-fluoro-N-(3-methyl-1,2,4-thiadiazol-5-yl)-4-[2-pyridazin-4-yl-4-(trifluoromethyl)phenoxy]benzenesulfonamide]
–	8.96	N#Cc1cc(S(=O)(=O)Nc2ncns2)ccc1Oc1ccc(C(F)(F)F)cc1-c1cccc(CN2CC[C@@H](O)C2)c1 [Example 987, 3-cyano-4-{[3′-{[(3R)-3-hydroxypyrrolidin-1-yl]methyl}-5-(trifluoromethyl)biphenyl-2-yl]oxy}-N-1,2,4-thiadiazol-5-ylbenzenesulfonamide]
–	7.60	Nc1cc(-c2cc(F)ccc2Oc2cc(F)c(S(=O)(=O)Nc3ccncn3)cc2Cl)ccn1 [Example 972, 4-[2-(2-aminopyridin-4-yl)-4-fluorophenoxy]-5-chloro-2-fluoro-N-pyrimidin-4-ylbenzenesulfonamide]
